# Legend:
# [1] = system: Staphylococcus aureus; assay: Antimicrobial activity against Staphylococcus aureus ATCC 25923 after 12 to 18 hrs by 2-fold serial dilution method; assay type: functional
# [2] = system: NCI-60 human cancer cell line panel (Homo sapiens); assay: Anticancer activity against NCI 60 human cancer cell lines assessed as mean cell growth in single dose assay
# [3] = Growth inhibition of human UACC62 cells; assay type: functional; settings: for GI50: UACC-62; for CC50: UACC-62, read-out: LC50 (the source's name)
# [4] = system: KM12; assay: Growth inhibition of human KM12 cells; assay type: functional; settings: for CC50: read-out: LC50 (the source's name)
# [5] = system: SK-MEL-28; assay: Growth inhibition of human SK-MEL-28 cells; assay type: functional; settings: for CC50: read-out: LC50 (the source's name)
# [6] = system: M14; assay: Growth inhibition of human M14 cells; assay type: functional; settings: for CC50: read-out: LC50 (the source's name)
# [7] = system: NCI-H460; assay: Growth inhibition of human NCI-H460 cells; assay type: functional; settings: for CC50: read-out: LC50 (the source's name)
# [8] = system: SK-MEL-5; assay: Growth inhibition of human SK-MEL-5 cells; assay type: functional
# [9] = system: A549; assay: Growth inhibition of human A549 cells; assay type: functional; settings: for CC50: read-out: LC50 (the source's name)
# [10] = Growth inhibition of human SF295 cells; assay type: functional; settings: SF-295
# [11] = system: COLO 205; assay: Growth inhibition of human COLO205 cells; assay type: functional; settings: for CC50: read-out: LC50 (the source's name)
# [12] = system: SNB-75; assay: Growth inhibition of human SNB75 cells; assay type: functional; settings: for CC50: read-out: LC50 (the source's name)
# [13] = system: SNB-19; assay: Growth inhibition of human SNB19 cells; assay type: functional
# [14] = Growth inhibition of human HCT15 cells; assay type: functional; settings: for GI50: HCT-15; for CC50: HCT-15, read-out: LC50 (the source's name)
# [15] = system: SW-620; assay: Growth inhibition of human SW620 cells; assay type: functional; settings: for CC50: read-out: LC50 (the source's name)
# [16] = system: HCT-116; assay: Growth inhibition of human HCT116 cells; assay type: functional; settings: for CC50: read-out: LC50 (the source's name)
# [17] = system: U-251; assay: Growth inhibition of human U251 cells; assay type: functional
# [18] = Growth inhibition of human EKVX cells; assay type: functional; settings: for CC50: read-out: LC50 (the source's name)
# [19] = Growth inhibition of human NCI60 cells assessed as cell growth; assay type: functional; parameters: concentration or dose not given beside the values
# [20] = system: SK-MEL-2; assay: Growth inhibition of human SK-MEL-2 cells; assay type: functional; settings: for CC50: read-out: LC50 (the source's name)
# [21] = system: HOP-62; assay: Growth inhibition of human HOP62 cells; assay type: functional; settings: for CC50: read-out: LC50 (the source's name)
# [22] = Growth inhibition of human HCC2998 cells; assay type: functional; settings: for GI50: HCC 2998; for CC50: HCC 2998, read-out: LC50 (the source's name)
# [23] = Growth inhibition of human HOP92 cells; assay type: functional; settings: for GI50: HOP-92; for CC50: HOP-92, read-out: LC50 (the source's name)
# [24] = Growth inhibition of human LOXIMVI cells; assay type: functional; settings: LOX IMVI; for CC50: read-out: LC50 (the source's name)
# [25] = system: HT-29; assay: Growth inhibition of human HT-29 cells; assay type: functional
# [26] = Growth inhibition of human UACC257 cells; assay type: functional; settings: for GI50: UACC-257; for CC50: UACC-257, read-out: LC50 (the source's name)
# [27] = system: MDA-MB-435; assay: Growth inhibition of human MDA-MB-435 cells; assay type: functional; settings: for CC50: read-out: LC50 (the source's name)
# [28] = system: NCI-H522; assay: Growth inhibition of human NCI-H522 cells; assay type: functional; settings: for CC50: read-out: LC50 (the source's name)
# [29] = system: NCI-H226; assay: Growth inhibition of human NCI-H226 cells; assay type: functional; settings: for CC50: read-out: LC50 (the source's name)
# [30] = system: SF-268; assay: Growth inhibition of human SF268 cells; assay type: functional; settings: for CC50: read-out: LC50 (the source's name)
# [31] = system: NCI-H23; assay: Growth inhibition of human NCI-H23 cells; assay type: functional; settings: for CC50: read-out: LC50 (the source's name)
# [32] = Growth inhibition of human SF539 cells; assay type: functional; settings: for GI50: SF-539; for CC50: SF-539, read-out: LC50 (the source's name)
# [33] = system: Malme-3M; assay: Growth inhibition of human MALME-3M cells; assay type: functional; settings: for CC50: read-out: LC50 (the source's name)
# [34] = system: NCI-H322M; assay: Growth inhibition of human NCI-H322M cells; assay type: functional
smiles,measurement,setting,value
Cn1n[n+](C)c2c1C(=O)c1ccccc1C2=O.[Cl-],MIC,[1],2 µg/mL
same,Activity,[2],-46%
CCCCCCCCn1n[n+](C)c2c1C(=O)c1ccccc1C2=O.[Cl-],MIC,[1],0.032 µg/mL
same,Activity,[2],44.8%
C[n+]1nn(Cc2ccccc2)c2c1C(=O)c1ccccc1C2=O.[Cl-],MIC,[1],2 µg/mL
same,Activity,[2],-37.9%
C[n+]1nn(-c2ccccc2)c2c1C(=O)c1ccccc1C2=O.[Cl-],MIC,[1],8 µg/mL
same,GI50,[3],1090 nM
same,CC50,[3],5230 nM
same,GI50,[4],820 nM
same,CC50,[4],9300 nM
same,GI50,[5],1190 nM
same,CC50,[5],6470 nM
same,GI50,[6],200 nM
same,CC50,[6],550 nM
same,GI50,[7],300 nM
same,CC50,[7],4230 nM
same,GI50,[8],180 nM
same,LC50 (lethal concentration 50),[8],550 nM
same,GI50,[9],350 nM
same,CC50,[9],5460 nM
same,GI50,[10],540 nM
same,LC50 (concentration killing 50% of cells),[10],4970 nM
same,GI50,[11],190 nM
same,CC50,[11],620 nM
same,GI50,[12],640 nM
same,CC50,[12],5870 nM
same,GI50,[13],1070 nM
same,LC50,[13],4340 nM
same,GI50,[14],1290 nM
same,CC50,[14],6370 nM
same,GI50,[15],550 nM
same,CC50,[15],3840 nM
same,GI50,[16],320 nM
same,CC50,[16],1500 nM
same,GI50,[17],1260 nM
same,LC50,[17],4330 nM
same,GI50,[18],1890 nM
same,CC50,[18],12600 nM
same,Activity,[19],-10.18%
same,GI50,[20],2180 nM
same,CC50,[20],6440 nM
same,GI50,[21],760 nM
same,CC50,[21],5570 nM
same,GI50,[22],340 nM
same,CC50,[22],3690 nM
same,GI50,[23],4170 nM
same,CC50,[23],9150 nM
same,GI50,[24],1160 nM
same,CC50,[24],5550 nM
same,GI50,[25],400 nM
same,LC50,[25],> 100000 nM
same,GI50,[26],1700 nM
same,CC50,[26],4490 nM
same,GI50,[27],200 nM
same,CC50,[27],580 nM
same,GI50,[28],11500 nM
same,CC50,[28],7740 nM
same,CC50,[29],5300 nM
same,GI50,[30],1640 nM
same,CC50,[30],> 100000 nM
same,GI50,[31],980 nM
same,CC50,[31],6540 nM
same,GI50,[32],1090 nM
same,CC50,[32],4720 nM
same,GI50,[33],210 nM
same,CC50,[33],650 nM
COc1ccc(-n2n[n+](C)c3c2C(=O)c2ccccc2C3=O)cc1.O=S(=O)([O-])C(F)(F)F,MIC,[1],4 µg/mL
same,GI50,[3],1010 nM
same,CC50,[3],6160 nM
same,GI50,[4],970 nM
same,CC50,[4],6240 nM
same,GI50,[5],1130 nM
same,CC50,[5],6520 nM
same,GI50,[6],210 nM
same,CC50,[6],880 nM
same,GI50,[7],300 nM
same,CC50,[7],6320 nM
same,GI50,[8],160 nM
same,LC50 (lethal concentration 50),[8],610 nM
same,GI50,[9],330 nM
same,CC50,[9],> 100000 nM
same,GI50,[10],630 nM
same,LC50 (concentration killing 50% of cells),[10],5250 nM
same,GI50,[11],230 nM
same,CC50,[11],960 nM
same,GI50,[12],1250 nM
same,CC50,[12],5150 nM
same,GI50,[13],1010 nM
same,LC50,[13],4940 nM
same,GI50,[14],1230 nM
same,CC50,[14],7170 nM
same,GI50,[15],380 nM
same,CC50,[15],5330 nM
same,GI50,[16],370 nM
same,CC50,[16],> 100000 nM
same,GI50,[17],1160 nM
same,LC50,[17],5770 nM
same,GI50,[18],2420 nM
same,CC50,[18],33000 nM
same,Activity,[19],-24.7%
same,GI50,[20],2050 nM
same,CC50,[20],> 100000 nM
same,GI50,[21],980 nM
same,CC50,[21],5140 nM
same,GI50,[22],450 nM
same,CC50,[22],4720 nM
same,GI50,[23],3470 nM
same,CC50,[23],> 100000 nM
same,GI50,[24],1240 nM
same,GI50,[25],380 nM
same,LC50,[25],> 100000 nM
same,GI50,[26],1450 nM
same,CC50,[26],5520 nM
same,GI50,[27],190 nM
same,CC50,[27],680 nM
same,GI50,[28],2050 nM
same,CC50,[28],18200 nM
same,GI50,[30],1720 nM
same,CC50,[30],> 100000 nM
same,GI50,[31],1050 nM
same,CC50,[31],> 100000 nM
same,GI50,[32],1280 nM
same,CC50,[32],5600 nM
same,GI50,[33],240 nM
same,CC50,[33],2110 nM
Cc1ccc(-n2n[n+](C)c3c2C(=O)c2ccccc2C3=O)cc1.O=S(=O)([O-])C(F)(F)F,MIC,[1],4 µg/mL
same,GI50,[3],1650 nM
same,CC50,[3],6380 nM
same,GI50,[4],1380 nM
same,CC50,[4],13900 nM
same,GI50,[5],2650 nM
same,CC50,[5],36500 nM
same,GI50,[6],260 nM
same,CC50,[6],3570 nM
same,GI50,[7],330 nM
same,CC50,[7],6130 nM
same,GI50,[34],880 nM
same,CC50,[34]; read-out: LC50 (the source's name),5380 nM
same,GI50,[9],1110 nM
same,CC50,[9],10000 nM
same,GI50,[10],1040 nM
same,LC50 (concentration killing 50% of cells),[10],5400 nM
same,GI50,[11],430 nM
same,CC50,[11],4430 nM
same,GI50,[12],2090 nM
same,CC50,[12],8910 nM
same,GI50,[13],1390 nM
same,LC50,[13],5480 nM
same,GI50,[14],2440 nM
same,CC50,[14],41200 nM
same,GI50,[15],1760 nM
same,CC50,[15],19200 nM
same,GI50,[16],1550 nM
same,CC50,[16],7920 nM
same,GI50,[17],2430 nM
same,LC50,[17],31800 nM
same,GI50,[18],4160 nM
same,CC50,[18],46800 nM
same,Activity,[19],11.53%
same,GI50,[20],2170 nM
same,CC50,[20],41100 nM
same,GI50,[21],2160 nM
same,CC50,[21],17800 nM
same,GI50,[22],1130 nM
same,CC50,[22],5400 nM
same,GI50,[23],420 nM
same,CC50,[23],46800 nM
same,GI50,[24],1800 nM
same,CC50,[24],23000 nM
same,GI50,[25],2100 nM
same,LC50,[25],> 100000 nM
same,GI50,[26],1850 nM
same,CC50,[26],17700 nM
same,GI50,[27],170 nM
same,CC50,[27],600 nM
same,GI50,[28],8140 nM
same,CC50,[28],60000 nM
same,GI50,[29],2930 nM
same,CC50,[29],36100 nM
same,GI50,[30],3140 nM
same,CC50,[30],4430 nM
same,GI50,[31],650 nM
same,CC50,[31],6070 nM
same,GI50,[32],1970 nM
same,CC50,[32],9890 nM
same,GI50,[33],320 nM
same,CC50,[33],13000 nM

# — ChEMBL document CHEMBL3232814, “Synthesis and anticancer structure activity relationship investigation of cationic anthraquinone analogs” (2014)
